Measured values published in ChEMBL document CHEMBL1201862, “PubChem BioAssay data set” (2004).
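In this assay, cells in 96-well plates receive the compound at five concentrations for 48 hours. Endpoints are linearly interpolated between the surrounding concentrations. The concentration for 50% growth inhibition is given as GI50.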 Calls of active or inactive are those of the source. Cut-off read from the data, not from the text of the source: active = GI50 up to about 1.1 µM and inactive = higher.

Key:
Experiment in all cases: NCI anticancer screen, dose series, 48 h
BT-549 = tested on: BT-549
HCT-116 = tested on: HCT-116
SNB-75 = tested on: SNB-75
HT-29 = tested on: HT-29
NCI-H522 = tested on: NCI-H522
UO-31 = tested on: UO-31
MOLT-4 = tested on: MOLT-4
EKVX = tested on: EKVX
HCT-15 = tested on: HCT-15
UACC-62 = tested on: UACC-62
HOP-92 = tested on: HOP-92
SN12C = tested on: SN12C
A498 = tested on: A498
PC-3 = tested on: PC-3
786-0 = tested on: 786-0
RPMI-8226 = tested on: RPMI-8226
OVCAR-8 = tested on: OVCAR-8
MDA-MB-435 = tested on: MDA-MB-435
OVCAR-3 = tested on: OVCAR-3
SF-539 = tested on: SF-539
RXF 393 = tested on: RXF 393
T47D = tested on: T47D
SK-MEL-2 = tested on: SK-MEL-2
K562 = tested on: K562
NCI/ADR-RES = tested on: NCI/ADR-RES
Hs-578T = tested on: Hs-578T
COLO 205 = tested on: COLO 205
MDA-N = tested on: MDA-N
LOX IMVI = tested on: LOX IMVI
ACHN = tested on: ACHN
SR = tested on: SR
NCI-H226 = tested on: NCI-H226
M14 = tested on: M14
SK-MEL-5 = tested on: SK-MEL-5
MCF7 = tested on: MCF7
CAKI-1 = tested on: CAKI-1
CCRF-CEM = tested on: CCRF-CEM
Malme-3M = tested on: Malme-3M
MDA-MB-231 = tested on: MDA-MB-231
NCI-H23 = tested on: NCI-H23
SF-268 = tested on: SF-268
SNB-19 = tested on: SNB-19
SW-620 = tested on: SW-620
A549 = tested on: A549
OVCAR-4 = tested on: OVCAR-4
HL-60 = tested on: HL-60
SK-MEL-28 = tested on: SK-MEL-28
OVCAR-5 = tested on: OVCAR-5
DU-145 = tested on: DU-145
HOP-62 = tested on: HOP-62
SK-OV-3 = tested on: SK-OV-3
U-251 = tested on: U-251
UACC-257 = tested on: UACC-257
HCC 2998 = tested on: HCC 2998
NCI-H460 = tested on: NCI-H460
KM12 = tested on: KM12
IGROV-1 = tested on: IGROV-1
SF-295 = tested on: SF-295
TK-10 = tested on: TK-10

Q: Which GI50 (BT-549) does the source give for `COc1cc(S(=O)(=O)Nc2ccc(-c3csc(N)n3)cc2)ccc1Cl` here?
A: 22.3 µM (inactive)

Q: And the GI50 (HCT-116)?
A: 16.2 µM (inactive)

Q: What about the GI50 (SNB-75) of the same molecule?
A: 21.4 µM (inactive)

Q: And the GI50 (HT-29)?
A: 20.7 µM (inactive)

Q: What about the GI50 (NCI-H522) of the same molecule?
A: 17.9 µM (inactive)

Q: And the GI50 (UO-31)?
A: 19.8 µM (inactive)

Q: And the GI50 (MOLT-4)?
A: 11.1 µM (inactive)

Q: And the GI50 (EKVX)?
A: 16.6 µM (inactive)

Q: What about the GI50 (HCT-15) of the same molecule?
A: 20.1 µM

Q: And the GI50 (UACC-62)?
A: 15.2 µM (inactive)

Q: What about the GI50 (HOP-92) of the same molecule?
A: 22.6 µM (inactive)

Q: What about the GI50 (SN12C) of the same molecule?
A: 18.3 µM (inactive)

Q: And the GI50 (A498)?
A: 18.2 µM (inactive)

Q: And the GI50 (PC-3)?
A: 15.3 µM (inactive)

Q: What about the GI50 (786-0) of the same molecule?
A: 16.4 µM (inactive)

Q: What about the GI50 (RPMI-8226) of the same molecule?
A: 19.5 µM (inactive)

Q: What about the GI50 (OVCAR-8) of the same molecule?
A: 22.3 µM (inactive)

Q: What about the GI50 (MDA-MB-435) of the same molecule?
A: 20.8 µM (inactive)

Q: And the GI50 (OVCAR-3)?
A: 14.9 µM (inactive)

Q: What about the GI50 (SF-539) of the same molecule?
A: 47.6 µM (inactive)

Q: And the GI50 (RXF 393)?
A: 12.2 µM (inactive)

Q: What about the GI50 (T47D) of the same molecule?
A: 7.87 µM (inactive)

Q: What about the GI50 (SK-MEL-2) of the same molecule?
A: 18.8 µM (inactive)

Q: And the GI50 (K562)?
A: 18.5 µM (inactive)

Q: And the GI50 (NCI/ADR-RES)?
A: 33.9 µM (inactive)

Q: What about the GI50 (Hs-578T) of the same molecule?
A: 53.7 µM (inactive)

Q: What about the GI50 (COLO 205) of the same molecule?
A: 17 µM (inactive)

Q: And the GI50 (MDA-N)?
A: 19.4 µM (inactive)

Q: What about the GI50 (LOX IMVI) of the same molecule?
A: 18.7 µM (inactive)

Q: And the GI50 (ACHN)?
A: 17.4 µM (inactive)

Q: What about the GI50 (SR) of the same molecule?
A: 21.9 µM (inactive)

Q: What about the GI50 (NCI-H226) of the same molecule?
A: 26.4 µM (inactive)

Q: And the GI50 (M14)?
A: 18.6 µM (inactive)

Q: What about the GI50 (SK-MEL-5) of the same molecule?
A: 16.6 µM (inactive)

Q: What about the GI50 (MCF7) of the same molecule?
A: 15.2 µM (inactive)

Q: And the GI50 (CAKI-1)?
A: 20.2 µM (inactive)

Q: And the GI50 (CCRF-CEM)?
A: 15.5 µM (inactive)

Q: What about the GI50 (Malme-3M) of the same molecule?
A: 16.6 µM (inactive)

Q: And the GI50 (MDA-MB-231)?
A: 16.9 µM (inactive)

Q: What about the GI50 (NCI-H23) of the same molecule?
A: 21.2 µM (inactive)

Q: What about the GI50 (SF-268) of the same molecule?
A: 34.4 µM (inactive)

Q: And the GI50 (SNB-19)?
A: 19.5 µM (inactive)

Q: What about the GI50 (SW-620) of the same molecule?
A: 24.3 µM (inactive)

Q: What about the GI50 (A549) of the same molecule?
A: 18.4 µM (inactive)

Q: What about the GI50 (OVCAR-4) of the same molecule?
A: 14.1 µM (inactive)

Q: What about the GI50 (HL-60) of the same molecule?
A: 15 µM (inactive)

Q: What about the GI50 (SK-MEL-28) of the same molecule?
A: 21.3 µM (inactive)

Q: What about the GI50 (OVCAR-5) of the same molecule?
A: 23.3 µM (inactive)

Q: What about the GI50 (DU-145) of the same molecule?
A: 18 µM (inactive)

Q: Which results are given for `Cc1ccc(S(=O)(=O)N2CCCCN(S(=O)(=O)c3ccc(C)cc3)Cc3ccccc3OCCOCCOc3c4cccc3Cc3cccc5c3OCCOCCOc3ccccc3CN(S(=O)(=O)c3ccc(C)cc3)CCCN(S(=O)(=O)c3ccc(C)cc3)Cc3ccccc3OCCOCCOc3c(cccc3C4)Cc3cccc(c3OCCOCCOc3ccccc3C2)C5)cc1`?
A: GI50 (BT-549): > 100 µM (inactive); GI50 (HCT-116): > 100 µM (inactive); GI50 (SNB-75): > 100 µM (inactive); GI50 (HT-29): > 100 µM (inactive); GI50 (NCI-H522): 78.9 µM (inactive); GI50 (HOP-62): > 100 µM (inactive); GI50 (UO-31): > 100 µM (inactive); GI50 (MOLT-4): > 100 µM (inactive); GI50 (EKVX): > 100 µM (inactive); GI50 (HCT-15): > 100 µM; GI50 (UACC-62): > 100 µM (inactive); GI50 (SK-OV-3): > 100 µM (inactive); GI50 (HOP-92): > 100 µM (inactive); GI50 (SN12C): > 100 µM (inactive); GI50 (U-251): > 100 µM (inactive); GI50 (A498): 53.2 µM (inactive); GI50 (PC-3): > 100 µM (inactive); GI50 (786-0): > 100 µM (inactive); GI50 (RPMI-8226): > 100 µM (inactive); GI50 (UACC-257): > 100 µM (inactive); GI50 (OVCAR-8): > 100 µM (inactive); GI50 (MDA-MB-435): > 100 µM (inactive); GI50 (OVCAR-3): > 100 µM (inactive); GI50 (SF-539): > 100 µM (inactive); GI50 (RXF 393): > 100 µM (inactive); GI50 (T47D): > 100 µM (inactive); GI50 (SK-MEL-2): > 100 µM (inactive); GI50 (HCC 2998): > 100 µM (inactive); GI50 (K562): > 100 µM (inactive); GI50 (NCI/ADR-RES): > 100 µM (inactive); GI50 (Hs-578T): > 100 µM (inactive); GI50 (COLO 205): > 100 µM (inactive); GI50 (MDA-N): > 100 µM (inactive); GI50 (LOX IMVI): > 100 µM (inactive); GI50 (ACHN): > 100 µM (inactive); GI50 (NCI-H226): > 100 µM (inactive); GI50 (NCI-H460): > 100 µM (inactive); GI50 (M14): > 100 µM (inactive); GI50 (KM12): > 100 µM (inactive); GI50 (SK-MEL-5): > 100 µM (inactive); GI50 (MCF7): > 100 µM (inactive); GI50 (CAKI-1): > 100 µM (inactive); GI50 (CCRF-CEM): > 100 µM (inactive); GI50 (Malme-3M): > 100 µM (inactive); GI50 (IGROV-1): > 100 µM (inactive); GI50 (MDA-MB-231): > 100 µM (inactive); GI50 (NCI-H23): > 100 µM (inactive); GI50 (SF-295): > 100 µM (inactive); GI50 (SF-268): > 100 µM (inactive); GI50 (SNB-19): > 100 µM (inactive); GI50 (SW-620): > 100 µM (inactive); GI50 (TK-10): > 100 µM (inactive); GI50 (A549): > 100 µM (inactive); GI50 (OVCAR-4): > 100 µM (inactive); GI50 (OVCAR-5): > 100 µM (inactive); GI50 (DU-145): > 100 µM (inactive)
